Measured values published in ChEMBL document CHEMBL5107965, “The progress of small-molecules and degraders against BCR-ABL for the treatment of CML” (Eur J Med Chem, 2022).
pIC50: −log10 of the molar value. Values after ≈ are worked out from the molar mass of the structure shown.

Key:
HL-60 = experiment: animal or person; settings: Mus musculus, HL-60, 528 h, read-out: TGI
Description: Antitumor activity against human HL-60 cells xenografted in SCID mouse assessed as tumor growth inhibition at 30 mg/kg, iv measured after 22 days relative to control

[1] = Inhibition of Aurora kinase (unknown origin); design: species or system Homo sapiens
KU812 cell line = experiment: Antiproliferative activity against human KU812 cell line assessed as cell growth inhibition measured after 24 hrs by WST-8 assay; type: functional, cell-based; settings: KU812, 24 h
[2] = molecular target: Protein cereblon/Tyrosine-protein kinase ABL1/Breakpoint cluster region protein (Homo sapiens, UniProt P00519+P11274+Q96SW2); experiment: Protac activity at CRBN/BCR-ABL in human K562 cells assessed as reduction in BCR-ABL protein levels incubated for 6 hrs by Western blotting analysis; type: cell-based
K562 [3] = experiment: Antiproliferative activity against human K562 cells assessed as cell growth inhibition measured after 24 hrs by WST-8 assay; type: functional, cell-based; settings: K562, 24 h
[4] = molecular target: Tyrosine-protein kinase ABL1 (Homo sapiens, UniProt P00519); experiment: Binding affinity to human recombinant His-tagged full length ABL1 expressed in baculovirus expression system by TR-FRET assay
KCL-22 = experiment: Antiproliferative activity against human KCL-22 cells assessed as cell growth inhibition measured after 24 hrs by WST-8 assay; type: functional, cell-based; settings: KCL-22, 24 h
K562 [5] = experiment: Antiproliferative activity against human K562 cells assessed as cell growth inhibition measured after 48 hrs by WST assay; type: functional, cell-based; settings: K562, 48 h
[6] = Half life in mouse at 10 mg/kg, po measured after upto 24 hrs by LC-MS/MS analysis; type: ADME, organism-based; settings: in vivo
K562 [7] = experiment: Antiproliferative activity against human K562 cells assessed as cell growth inhibition measured after 24 hrs; type: functional, cell-based; settings: K562, 24 h
[8] = molecular target: von Hippel-Lindau disease tumor suppressor/Tyrosine-protein kinase ABL1/Breakpoint cluster region protein (Homo sapiens, UniProt P00519+P11274+P40337); experiment: Protac activity at VHL/BCR-ABL in human K562 cells assessed as reduction in BCR-ABL protein levels by immunoblotting analysis; type: cell-based
[9] = Cmax in mouse at 10 mg/kg, po measured after upto 24 hrs by LC-MS/MS analysis; type: ADME, organism-based; design: dose 10 mg/kg, time < 24 hrs, route po; settings: in vivo
[10] = Cytotoxicity against human CD34-positive/CD38-negative leukemic cell assessed as cell growth inhibition measured after 48 hrs by MTT assay; type: functional, cell-based
Leukemia cell = experiment: Cytotoxicity against human Leukemia cell assessed as cell growth inhibition measured after 48 hrs by MTT assay; type: functional, cell-based
K562 [11] = experiment: Antiproliferative activity against imatinib resistant human K562 cells assessed as cell growth inhibition measured after 48 hrs by MTT assay; type: functional, cell-based; settings: K562, 48 h
K562 [12] = experiment: Antiproliferative activity against human K562 cells assessed as cell growth inhibition; type: functional, cell-based
BaF3 [13] = experiment: Antiproliferative activity against mouse BaF3 cells harbouring ABL-T315I mutant assessed as cell growth inhibition measured after 72 hrs by MTT assay; type: functional, cell-based; settings: BaF3, 72 h
BaF3 [14] = experiment: cells; settings: Mus musculus, BaF3, 72 h
Description: Antiproliferative activity against mouse BaF3 cells harbouring wild type ABL assessed as cell growth inhibition measured after 72 hrs by MTT assay

[15] = AUC in BALB/c mouse at 30 mg/kg, po via gavage; type: ADME, organism-based; design: dose 30 mg/kg, route po; settings: in vivo
[16] = molecular target: Tyrosine-protein kinase Lyn (Homo sapiens, UniProt P07948); experiment: Inhibition of LYN (unknown origin) in presence of [gamma33P]-ATP and ATP by ELISA method
[17] = Tmax in BALB/c mouse at 30 mg/kg, po via gavage; type: ADME, organism-based; settings: in vivo
[18] = Cmax in BALB/c mouse at 30 mg/kg, po via gavage; type: ADME, organism-based; design: dose 30 mg/kg, route po; settings: in vivo
[19] = Half life in BALB/c mouse at 30 mg/kg, po via gavage; type: ADME, organism-based; settings: in vivo
[20] = Oral bioavailability in BALB/c mouse at 30 mg/kg via gavage; type: ADME, organism-based; settings: in vivo
[21] = Antiproliferative activity against human KM3 cells assessed as cell growth inhibition measured after 48 hrs by MTT assay; type: functional, cell-based; settings: KM3, 48 h
K562 [22] = experiment: Antiproliferative activity against imatinib resistant human K562 cells assessed as cell growth inhibition measured after 24 hrs by MTT assay; type: functional, cell-based; settings: K562, 24 h
[23] = Antiproliferative activity against human KM3 cells assessed as cell growth inhibition measured after 24 hrs by MTT assay; type: functional, cell-based; settings: KM3, 24 h
[24] = Antiproliferative activity against human KM3 cells assessed as cell growth inhibition measured after 72 hrs by MTT assay; type: functional, cell-based; settings: KM3, 72 h
[25] = Cytotoxicity against human Hematopoietic stem cell assessed as cell growth inhibition measured after 48 hrs by MTT assay; type: toxicity, cell-based; settings: hematopoietic stem cells
KBM5 [26] = experiment: Antiproliferative activity against human KBM5 cells assessed as cell growth inhibition measured after 24 to 48 hrs by MTS assay; type: functional, cell-based
KBM5 [27] = experiment: Antiproliferative activity against human KBM5 cells harbouring T315I mutant assessed as cell growth inhibition measured after 24 to 48 hrs by MTS assay; type: functional, cell-based
K562 [28] = experiment: Antiproliferative activity against human K562 cells assessed as cell growth inhibition measured after 24 to 48 hrs by MTS assay; type: functional, cell-based

Chain of Tyrosine-protein kinase ABL1 (P00519 whole entry): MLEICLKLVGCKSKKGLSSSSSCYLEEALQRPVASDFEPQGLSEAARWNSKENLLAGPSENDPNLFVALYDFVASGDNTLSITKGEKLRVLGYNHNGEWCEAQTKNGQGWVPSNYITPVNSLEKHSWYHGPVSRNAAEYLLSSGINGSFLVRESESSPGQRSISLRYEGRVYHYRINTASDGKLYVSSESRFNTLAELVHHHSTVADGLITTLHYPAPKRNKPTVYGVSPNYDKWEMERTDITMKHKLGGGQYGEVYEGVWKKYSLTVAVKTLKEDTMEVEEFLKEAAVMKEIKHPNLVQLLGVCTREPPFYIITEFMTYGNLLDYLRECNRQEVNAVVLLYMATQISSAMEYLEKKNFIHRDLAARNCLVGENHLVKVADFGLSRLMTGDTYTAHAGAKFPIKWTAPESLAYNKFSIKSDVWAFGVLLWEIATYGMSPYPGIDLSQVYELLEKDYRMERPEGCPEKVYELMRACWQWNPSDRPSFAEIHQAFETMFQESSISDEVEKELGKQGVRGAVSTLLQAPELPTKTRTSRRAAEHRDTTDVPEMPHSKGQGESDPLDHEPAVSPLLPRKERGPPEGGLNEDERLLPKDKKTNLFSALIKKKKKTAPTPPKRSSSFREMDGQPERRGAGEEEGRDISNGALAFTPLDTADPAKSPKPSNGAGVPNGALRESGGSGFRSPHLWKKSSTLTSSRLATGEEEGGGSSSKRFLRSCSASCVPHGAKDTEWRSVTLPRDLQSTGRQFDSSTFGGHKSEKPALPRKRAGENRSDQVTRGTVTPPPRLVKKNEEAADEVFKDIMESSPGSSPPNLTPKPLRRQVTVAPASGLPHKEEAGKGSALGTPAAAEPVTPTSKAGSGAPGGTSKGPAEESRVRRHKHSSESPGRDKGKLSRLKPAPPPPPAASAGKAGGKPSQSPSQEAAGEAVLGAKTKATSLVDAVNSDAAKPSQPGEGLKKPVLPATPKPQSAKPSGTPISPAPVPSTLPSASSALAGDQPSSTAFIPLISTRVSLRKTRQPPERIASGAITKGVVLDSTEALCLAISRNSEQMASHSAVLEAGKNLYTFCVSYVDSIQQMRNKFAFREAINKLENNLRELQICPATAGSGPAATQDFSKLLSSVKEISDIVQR
Chain of von Hippel-Lindau disease tumor suppressor/Tyrosine-protein kinase ABL1/Breakpoint cluster region protein (P00519 whole entry): as above
Chain of von Hippel-Lindau disease tumor suppressor/Tyrosine-protein kinase ABL1/Breakpoint cluster region protein (P11274 whole entry): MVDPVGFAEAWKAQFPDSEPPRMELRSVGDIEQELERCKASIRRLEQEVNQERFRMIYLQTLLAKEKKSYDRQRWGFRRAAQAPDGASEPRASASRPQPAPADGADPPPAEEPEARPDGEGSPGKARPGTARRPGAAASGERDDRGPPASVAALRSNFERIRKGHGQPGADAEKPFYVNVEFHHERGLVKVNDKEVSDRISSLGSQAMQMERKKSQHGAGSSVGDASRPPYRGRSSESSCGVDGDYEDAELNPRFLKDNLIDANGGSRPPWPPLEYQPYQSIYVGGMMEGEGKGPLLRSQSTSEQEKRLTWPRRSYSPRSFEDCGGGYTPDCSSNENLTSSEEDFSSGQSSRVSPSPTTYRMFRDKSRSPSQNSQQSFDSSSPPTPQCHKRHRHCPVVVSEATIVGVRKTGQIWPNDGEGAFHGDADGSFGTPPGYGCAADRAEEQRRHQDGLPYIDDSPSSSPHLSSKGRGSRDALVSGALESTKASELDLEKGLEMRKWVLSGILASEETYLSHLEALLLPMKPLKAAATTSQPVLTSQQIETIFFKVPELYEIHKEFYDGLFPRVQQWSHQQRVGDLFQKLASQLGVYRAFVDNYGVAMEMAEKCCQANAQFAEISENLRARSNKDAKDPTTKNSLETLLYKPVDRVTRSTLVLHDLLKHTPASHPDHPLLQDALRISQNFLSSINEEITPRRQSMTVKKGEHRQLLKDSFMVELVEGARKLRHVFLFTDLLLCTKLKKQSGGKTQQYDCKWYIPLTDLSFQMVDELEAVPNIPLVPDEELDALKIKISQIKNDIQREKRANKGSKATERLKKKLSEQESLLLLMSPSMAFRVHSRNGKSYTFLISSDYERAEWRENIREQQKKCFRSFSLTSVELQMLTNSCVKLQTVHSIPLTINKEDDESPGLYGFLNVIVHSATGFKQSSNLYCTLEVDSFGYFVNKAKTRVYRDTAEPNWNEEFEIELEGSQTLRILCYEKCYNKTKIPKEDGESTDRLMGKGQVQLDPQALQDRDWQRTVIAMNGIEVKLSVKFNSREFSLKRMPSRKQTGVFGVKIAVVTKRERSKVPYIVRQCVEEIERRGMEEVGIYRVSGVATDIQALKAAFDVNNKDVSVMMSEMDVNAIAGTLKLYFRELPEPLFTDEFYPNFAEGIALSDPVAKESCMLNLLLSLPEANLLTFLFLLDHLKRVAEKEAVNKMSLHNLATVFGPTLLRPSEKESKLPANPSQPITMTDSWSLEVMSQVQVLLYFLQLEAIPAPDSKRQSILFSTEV
Chain of von Hippel-Lindau disease tumor suppressor/Tyrosine-protein kinase ABL1/Breakpoint cluster region protein (P40337 whole entry): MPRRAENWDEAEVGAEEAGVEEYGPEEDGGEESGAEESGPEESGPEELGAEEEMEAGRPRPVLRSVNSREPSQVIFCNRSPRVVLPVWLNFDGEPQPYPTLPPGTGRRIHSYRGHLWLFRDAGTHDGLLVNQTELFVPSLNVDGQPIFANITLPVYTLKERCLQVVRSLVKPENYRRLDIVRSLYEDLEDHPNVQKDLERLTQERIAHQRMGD
Chain of Protein cereblon/Tyrosine-protein kinase ABL1/Breakpoint cluster region protein (P00519 whole entry): as the sequence (P00519 whole entry) above
Chain of Protein cereblon/Tyrosine-protein kinase ABL1/Breakpoint cluster region protein (P11274 whole entry): as the sequence (P11274 whole entry) above
Chain of Protein cereblon/Tyrosine-protein kinase ABL1/Breakpoint cluster region protein (Q96SW2 whole entry): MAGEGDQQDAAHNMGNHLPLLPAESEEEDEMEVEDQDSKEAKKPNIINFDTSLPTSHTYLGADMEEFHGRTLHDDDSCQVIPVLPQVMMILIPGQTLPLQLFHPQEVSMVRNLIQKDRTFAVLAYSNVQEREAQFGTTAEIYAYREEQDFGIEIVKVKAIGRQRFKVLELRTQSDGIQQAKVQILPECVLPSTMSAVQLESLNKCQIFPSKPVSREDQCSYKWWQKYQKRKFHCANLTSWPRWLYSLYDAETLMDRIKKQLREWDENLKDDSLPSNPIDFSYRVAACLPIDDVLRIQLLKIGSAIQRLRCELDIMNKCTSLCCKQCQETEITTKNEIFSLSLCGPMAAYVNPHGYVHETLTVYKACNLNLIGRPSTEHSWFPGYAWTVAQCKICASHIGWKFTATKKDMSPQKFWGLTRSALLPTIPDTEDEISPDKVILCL
Chain of Tyrosine-protein kinase Lyn (P07948 whole entry): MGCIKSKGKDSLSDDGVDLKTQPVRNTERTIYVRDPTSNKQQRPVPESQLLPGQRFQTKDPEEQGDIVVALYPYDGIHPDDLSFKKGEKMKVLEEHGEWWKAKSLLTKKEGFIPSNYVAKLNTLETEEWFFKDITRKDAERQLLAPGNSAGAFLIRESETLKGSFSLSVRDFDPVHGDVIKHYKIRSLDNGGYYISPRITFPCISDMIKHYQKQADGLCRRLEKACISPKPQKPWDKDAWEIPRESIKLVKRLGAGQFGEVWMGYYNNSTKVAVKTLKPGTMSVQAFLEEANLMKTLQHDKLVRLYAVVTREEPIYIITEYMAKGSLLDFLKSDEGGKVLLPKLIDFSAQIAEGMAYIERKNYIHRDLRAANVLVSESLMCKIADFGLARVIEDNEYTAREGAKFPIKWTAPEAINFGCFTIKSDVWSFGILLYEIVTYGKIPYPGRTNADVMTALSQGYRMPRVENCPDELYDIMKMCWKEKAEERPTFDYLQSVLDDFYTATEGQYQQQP

In the case of CO[C@H](C(=O)N1Cc2[nH]nc(NC(=O)c3ccc(N4CCN(C)CC4)cc3)c2C1)c1ccccc1, the inhibition in vivo at 30 mg/kg (HL-60) was 98% and the pIC50 [1] was 7.89.

In the case of CN[C@@H](C)C(=O)N[C@H](C(=O)N1CCC[C@H]1c1nc(C(=O)c2cccc(OCCCOCC(=O)N3CCN(c4cc(Nc5ncc(C(=O)Nc6c(C)cccc6Cl)s5)nc(C)n4)CC3)c2)cs1)C1CCCCC1, the pIC50 (KU812 cell line) was 8.17, the DC50 [2] was 0.01 µM and the pIC50 (K562 [3]) was 8.05. For the same molecule, the pIC50 [4] was 9.27 and the pIC50 (KCL-22) was 8.09.

Molecule CN[C@@H](C)C(=O)N[C@H](C(=O)N1CCC[C@H]1c1nc(C(=O)c2ccc(OCCOCCOCCOCC(=O)N3CCN(c4cc(Nc5ncc(C(=O)Nc6c(C)cccc6Cl)s5)nc(C)n4)CC3)cc2)cs1)C1CCCCC1 has a pIC50 (K562 [5]) of 8.07.

Cc1ncsc1-c1ccc(CNC(=O)[C@@H]2C[C@@H](O)CN2C(=O)[C@@H](NC(=O)COCCNc2ccc(C(=O)Nc3ccc(OC(F)(F)Cl)cc3)cc2-c2cc[nH]n2)C(C)(C)C)cc1 showed a half-life [6] of 3.67 h, a pIC50 (K562 [7]) of 6.77 and a DC50 [8] of 0.03 µM. It also gave a Cmax [9] of 536 ng/mL.

COc1ccc2cc1Oc1ccc(cc1)C[C@H]1c3cc(c(OC)cc3CCN1C)Oc1c(OC)c(OC)cc3c1[C@H](C2)N(C)CC3.O=C(O)CC(O)(CC(=O)O)C(=O)O showed an IC50 [10] of 1.2 µg/mL, an IC50 (Leukemia cell) of 1.2 µg/mL and an IC50 (K562 [11]) of 1.2 µg/mL.

Work on COc1cc2c3cc1Oc1c(OC)c(OC)cc4c1[C@@H](Cc1ccc(OC(=O)c5ccc(Cl)cc5)c(c1)Oc1ccc(cc1)C[C@@H]3N(C)CC2)N(C)CC4 yielded an IC50 (K562 [12]) of 0.5 µg/mL (≈ 0.669 µM).

O=C(Nc1c[nH]nc1-c1nc2ccc(CN3CCOCC3)cc2[nH]1)NC1CC1 [AT-9283] gave a pIC50 (BaF3 [13]) of 7.96 and a pIC50 (BaF3 [14]) of 7.89.

Molecule Cc1ccc(NC(=O)c2ccc(CN3CC[C@H](N(C)C)C3)c(C(F)(F)F)c2)cc1Nc1nccc(-c2cncnc2)n1 [BAFETINIB] has an AUC [15] of 2290 ng·h/mL, a pIC50 [16] of 7.72 and a Tmax [17] of 2 h. It also gave a Cmax [18] of 661 ng/mL, a half-life [19] of 1 h and a bioavailability [20] of 32%.

For COc1cc2c3cc1Oc1c(OC)c(OC)cc4c1[C@@H](Cc1ccc(O)c(c1)Oc1ccc(cc1)C[C@@H]3N(C)CC2)N(C)CC4 [BERBAMINE], the IC50 [21] was 5.09 µg/mL (≈ 8.36 µM), the pIC50 (K562 [22]) was 4.77 and the IC50 [23] was 8.17 µg/mL (≈ 13.4 µM). It also gave a pIC50 (K562 [11]) of 4.95, an IC50 [24] of 3.84 µg/mL (≈ 6.31 µM) and an IC50 at 48 h [25] of 185 µg/mL (≈ 304 µM).

COc1ccc(-c2cc(=O)c3c(O)cc(O)cc3o2)cc1O [DIOSMETIN] gave a pIC50 (KBM5 [26]) of 5.07, a pIC50 (KBM5 [27]) of 5.19 and a pIC50 (K562 [28]) of 5.07.
